Results reported in patent US20240158446A1, “CYCLIC COMPOUND HAVING SELECTIVE INHIBITORY ACTION ON KRAS OVER HRAS AND NRAS” (CHUGAI SEIYAKU KABUSHIKI KAISHA, priority 2021, published 2024).
*1 amine or outer side, *2 acyl side, *3 side chain or, on linkers, in order; H or OH if unused. Where a SMILES comes first, the peptide text is derived from it. Bridges are numbered along the chain shown (N, C = ends). [ ]: non-standard residue; d: D form. The star is where a group is joined. hPhe(3-Cl-4-CF3) = N[C@@H](CCc1ccc(C(F)(F)F)c(Cl)c1)C(=O)O; NPrPhe(4-CF3) = CCCN[C@@H](Cc1ccc(C(F)(F)F)cc1)C(=O)O; NPrAsp = CCCN([C@@H](CC(=O)[*:3])C(=O)[*:2])[*:1]; NEtAsp = CCN([C@@H](CC(=O)[*:3])C(=O)[*:2])[*:1]; X7 = CCN([C@H](C(=O)[*:2])C1CCCC1)[*:1]; NMeGly(cPent) = CN[C@H](C(=O)O)C1CCCC1; NMeNva(3-Et) = CCC(CC)[C@H](NC)C(=O)O; NMeD = CN[C@@H](CC(=O)O)C(=O)O; NMeL = CN[C@@H](CC(C)C)C(=O)O; NMeNva = CCC[C@H](NC)C(=O)O; Morpholide = C1CN(*)CCO1; NMeA = CN[C@@H](C)C(=O)O; Aze = O=C(O)[C@@H]1CCN1; Ac4c = NC1(C(=O)O)CCC1; NPrGly = CCCNCC(=O)O; NEtG = CCNCC(=O)O; Sar = CNCC(=O)O

What was measured:
[1] = biological target: GDP-bound KRAS wild-type protein (Homo sapiens, UniProt P01116); assay: Binding to KRAS by surface plasmon resonance (SPR), Single Cycle Kinetics; conditions: SPR, Single Cycle Kinetics, GDP-bound KRAS wild-type protein; read-out: KRAS KD
Sequence of GDP-bound KRAS wild-type protein (P01116 whole entry): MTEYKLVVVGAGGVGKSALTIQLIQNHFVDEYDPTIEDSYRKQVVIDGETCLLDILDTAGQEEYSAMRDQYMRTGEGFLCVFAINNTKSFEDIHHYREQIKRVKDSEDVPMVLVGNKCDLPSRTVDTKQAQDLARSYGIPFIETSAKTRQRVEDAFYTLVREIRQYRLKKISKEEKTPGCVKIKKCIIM

[2] = biological target: GDP-bound NRAS wild-type protein (Homo sapiens, UniProt P01111); assay: Binding to NRAS by surface plasmon resonance (SPR), Single Cycle Kinetics; conditions: ratio of KD for GDP-bound NRAS wild-type protein to KD for KRAS, SPR
Sequence of GDP-bound NRAS wild-type protein (P01111 whole entry): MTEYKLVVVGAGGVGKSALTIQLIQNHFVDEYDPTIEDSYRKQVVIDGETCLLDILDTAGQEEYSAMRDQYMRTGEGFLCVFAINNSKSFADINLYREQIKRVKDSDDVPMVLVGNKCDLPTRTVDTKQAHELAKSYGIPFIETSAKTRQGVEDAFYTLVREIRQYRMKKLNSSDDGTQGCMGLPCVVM

[3] = tested on: human lung cancer strain NCI-H441; assay: cells; conditions: NCI-H441, 96 h, read-out: NCI-H441 IC50 (nM), NCI-H441 cell proliferation, 4 days, CellTiter-Glo;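 further: cell proliferation inhibition after four days measured by CellTiter-Glo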
[4] = biological target: GDP-bound HRAS wild-type protein (Homo sapiens, UniProt P01112); assay: Binding to HRAS by surface plasmon resonance (SPR), Single Cycle Kinetics; conditions: ratio of KD for GDP-bound HRAS wild-type protein to KD for KRAS, SPR
Sequence of GDP-bound HRAS wild-type protein (P01112 whole entry): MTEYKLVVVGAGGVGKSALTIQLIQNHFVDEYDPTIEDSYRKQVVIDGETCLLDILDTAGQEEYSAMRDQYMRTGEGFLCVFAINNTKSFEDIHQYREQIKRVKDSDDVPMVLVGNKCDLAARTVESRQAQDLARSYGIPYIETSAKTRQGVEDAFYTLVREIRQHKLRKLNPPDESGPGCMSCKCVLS

Row | SMILES | Kd [1] [nM] | NRAS/KRAS (KD ratio) [2] | IC50 [3] [nM] | HRAS/KRAS (KD ratio) [4]
1 | CCC[C@H]1C(=O)N[C@@H]([C@@H](C)CC)C(=O)N(CCC)CC(=O)N(C)CC(=O)N(CCC)[C@@H](Cc2ccc(C(F)(F)F)cc2)C(=O)N(C)CC(=O)N[C@@H](CCc2ccc(C(F)(F)F)c(Cl)c2)C(=O)N2CCC[C@H]2C(=O)NC2(CCC2)C(=O)N(C)[C@@H](C2CCCC2)C(=O)N(C)[C@H](C(=O)N2CCOCC2)CC(=O)N1C [PP1947] ([NMeNva]I[NPrGly][Sar][NPrPhe(4-CF3)][Sar][hPhe(3-Cl-4-CF3)]P[Ac4c][NMeGly(cPent)][NMeD]-Morpholide; lactam N-11) | 0.37 | B (a compound having 3 or more and less than 10 is denoted as B) | 22 | B (a compound having 3 or more and less than 10 is denoted as B)
2 | CCCN1C(=O)CN(C)C(=O)CN(C)C(=O)[C@H]([C@@H](C)CC)NC(=O)[C@H](CC(C)C)N(C)C(=O)C[C@@H](C(=O)N2CCOCC2)N(C)C(=O)[C@H](C2CCCC2)N(C)C(=O)C2(CCC2)NC(=O)[C@@H]2CCCN2C(=O)[C@H](CCc2ccc(C(F)(F)F)c(Cl)c2)NC(=O)CN(CC)C(=O)[C@@H]1Cc1ccc(C(F)(F)F)cc1 [PP1950] ([NMeL]I[Sar][Sar][NPrPhe(4-CF3)][NEtG][hPhe(3-Cl-4-CF3)]P[Ac4c][NMeGly(cPent)][NMeD]-Morpholide; lactam N-11) | 1.9 | B (a compound having 3 or more and less than 10 is denoted as B) | 32.5 | C (A compound having a KD ratio of 0.1 or more and less than 3 is denoted as C)
3 | CCCN1C(=O)CN(C)C(=O)CN(C)C(=O)[C@H]([C@@H](C)CC)NC(=O)[C@H](CC(C)C)N(C)C(=O)C[C@@H](C(=O)N2CCOCC2)N(C)C(=O)[C@H](C2CCCC2)N(CC)C(=O)C2(CCC2)NC(=O)[C@@H]2CCCN2C(=O)[C@H](CCc2ccc(C(F)(F)F)c(Cl)c2)NC(=O)CN(C)C(=O)[C@@H]1Cc1ccc(C(F)(F)F)cc1 [PP1952] ([NMeL]I[Sar][Sar][NPrPhe(4-CF3)][Sar][hPhe(3-Cl-4-CF3)]P[Ac4c][X7][NMeD]-Morpholide; lactam N-11) | 0.13 | B (a compound having 3 or more and less than 10 is denoted as B) | 14 | B (a compound having 3 or more and less than 10 is denoted as B)
4 | CCCN1C(=O)CN(C)C(=O)CN(C)C(=O)[C@H]([C@@H](C)CC)NC(=O)[C@H](CC(C)C)N(C)C(=O)C[C@@H](C(=O)N2CCOCC2)N(CC)C(=O)[C@H](C2CCCC2)N(C)C(=O)C2(CCC2)NC(=O)[C@@H]2CCCN2C(=O)[C@H](CCc2ccc(C(F)(F)F)c(Cl)c2)NC(=O)CN(C)C(=O)[C@@H]1Cc1ccc(C(F)(F)F)cc1 [PP1953] ([NMeL]I[Sar][Sar][NPrPhe(4-CF3)][Sar][hPhe(3-Cl-4-CF3)]P[Ac4c][NMeGly(cPent)][NEtAsp]-Morpholide; lactam N-11) | 0.42 | B (a compound having 3 or more and less than 10 is denoted as B) | 8.7 | B (a compound having 3 or more and less than 10 is denoted as B)
5 | CCC[C@H]1C(=O)N[C@@H]([C@@H](C)CC)C(=O)N(C)CC(=O)N(C)CC(=O)N(CCC)[C@@H](Cc2ccc(C(F)(F)F)cc2)C(=O)N(C)CC(=O)N[C@@H](CCc2ccc(C(F)(F)F)c(Cl)c2)C(=O)N2CCC[C@H]2C(=O)NC2(CCC2)C(=O)N(C)[C@@H](C2CCCC2)C(=O)N(CCC)[C@H](C(=O)N2CCOCC2)CC(=O)N1C [PP1954] ([NMeNva]I[Sar][Sar][NPrPhe(4-CF3)][Sar][hPhe(3-Cl-4-CF3)]P[Ac4c][NMeGly(cPent)][NPrAsp]-Morpholide; lactam N-11) | 0.77 | B (a compound having 3 or more and less than 10 is denoted as B) | 8.1 | B (a compound having 3 or more and less than 10 is denoted as B)
6 | CCC[C@H]1C(=O)N[C@@H]([C@@H](C)CC)C(=O)N(C)[C@@H](C)C(=O)N2CC[C@H]2C(=O)N(CCC)[C@@H](Cc2ccc(C(F)(F)F)cc2)C(=O)N(C)CC(=O)N[C@@H](CCc2ccc(C(F)(F)F)c(Cl)c2)C(=O)N2CCC[C@H]2C(=O)NC2(CCC2)C(=O)N(C)[C@@H](C2CCCC2)C(=O)N(CC)[C@H](C(=O)N2CCOCC2)CC(=O)N1C [PP1955] ([NMeNva]I[NMeA][Aze][NPrPhe(4-CF3)][Sar][hPhe(3-Cl-4-CF3)]P[Ac4c][NMeGly(cPent)][NEtAsp]-Morpholide; lactam N-11) | 0.82 | C (A compound having a KD ratio of 0.1 or more and less than 3 is denoted as C) | 4.4 | B (a compound having 3 or more and less than 10 is denoted as B)
7 | CCCN1C(=O)CN(C)C(=O)CN(C)C(=O)[C@H]([C@@H](C)CC)NC(=O)[C@H](CC(C)C)N(C)C(=O)C[C@@H](C(=O)N(C)C)N(CC)C(=O)[C@H](C2CCCC2)N(C)C(=O)C2(CCC2)NC(=O)[C@@H]2CCCN2C(=O)[C@H](CCc2ccc(C(F)(F)F)c(Cl)c2)NC(=O)CN(C)C(=O)[C@@H]1Cc1ccc(C(F)(F)F)cc1 [PP1956] ([NMeL]I[Sar][Sar][NPrPhe(4-CF3)][Sar][hPhe(3-Cl-4-CF3)]P[Ac4c][NMeGly(cPent)][NEtAsp]-NMe2; lactam N-11) | 0.28 | B (a compound having 3 or more and less than 10 is denoted as B) | 2.2 | B (a compound having 3 or more and less than 10 is denoted as B)
8 | CCCN1C(=O)[C@@H]2CCN2C(=O)[C@H](C)N(C)C(=O)[C@H]([C@@H](C)CC)NC(=O)[C@H](CC(C)C)N(C)C(=O)C[C@@H](C(=O)N(C)C)N(CC)C(=O)[C@H](C2CCCC2)N(C)C(=O)C2(CCC2)NC(=O)[C@@H]2CCCN2C(=O)[C@H](CCc2ccc(C(F)(F)F)c(Cl)c2)NC(=O)CN(C)C(=O)[C@@H]1Cc1ccc(C(F)(F)F)cc1 [PP1957] ([NMeL]I[NMeA][Aze][NPrPhe(4-CF3)][Sar][hPhe(3-Cl-4-CF3)]P[Ac4c][NMeGly(cPent)][NEtAsp]-NMe2; lactam N-11) | 0.36 | C (A compound having a KD ratio of 0.1 or more and less than 3 is denoted as C) | 8.6 | B (a compound having 3 or more and less than 10 is denoted as B)
9 | CCCN1C(=O)CN(C)C(=O)CN(C)C(=O)[C@H]([C@@H](C)CC)NC(=O)[C@H](CC(C)C)N(C)C(=O)C[C@@H](C(=O)N2CCOCC2)N(C)C(=O)[C@H](C(CC)CC)N(C)C(=O)C2(CCC2)NC(=O)[C@@H]2CCCN2C(=O)[C@H](CCc2ccc(C(F)(F)F)c(Cl)c2)NC(=O)CN(C)C(=O)[C@@H]1Cc1ccc(C(F)(F)F)cc1 [PP1958] ([NMeL]I[Sar][Sar][NPrPhe(4-CF3)][Sar][hPhe(3-Cl-4-CF3)]P[Ac4c][NMeNva(3-Et)][NMeD]-Morpholide; lactam N-11) | 0.53 | B (a compound having 3 or more and less than 10 is denoted as B) | 57.8 | B (a compound having 3 or more and less than 10 is denoted as B)
10 | CCC[C@H]1C(=O)N[C@@H]([C@@H](C)CC)C(=O)N(C)[C@@H](C)C(=O)N2CC[C@H]2C(=O)N(CCC)[C@@H](Cc2ccc(C(F)(F)F)cc2)C(=O)N(C)CC(=O)N[C@@H](CCc2ccc(C(F)(F)F)c(Cl)c2)C(=O)N2CCC[C@H]2C(=O)NC2(CCC2)C(=O)N(C)[C@@H](C(CC)CC)C(=O)N(C)[C@H](C(=O)N2CCOCC2)CC(=O)N1C [PP1959] ([NMeNva]I[NMeA][Aze][NPrPhe(4-CF3)][Sar][hPhe(3-Cl-4-CF3)]P[Ac4c][NMeNva(3-Et)][NMeD]-Morpholide; lactam N-11) | 0.55 | C (A compound having a KD ratio of 0.1 or more and less than 3 is denoted as C) | 14.7 | B (a compound having 3 or more and less than 10 is denoted as B)
11 | CCCN1C(=O)CN(C)C(=O)CN(C)C(=O)[C@H]([C@@H](C)CC)NC(=O)[C@H](CC(C)C)N(C)C(=O)C[C@@H](C(=O)N(C)C)N(C)C(=O)[C@H](C(CC)CC)N(C)C(=O)C2(CCC2)NC(=O)[C@@H]2CCCN2C(=O)[C@H](CCc2ccc(C(F)(F)F)c(Cl)c2)NC(=O)CN(C)C(=O)[C@@H]1Cc1ccc(C(F)(F)F)cc1 [PP1960] ([NMeL]I[Sar][Sar][NPrPhe(4-CF3)][Sar][hPhe(3-Cl-4-CF3)]P[Ac4c][NMeNva(3-Et)][NMeD]-NMe2; lactam N-11) | 0.17 | B (a compound having 3 or more and less than 10 is denoted as B) | 6 | C (A compound having a KD ratio of 0.1 or more and less than 3 is denoted as C)
12 | CCCN1C(=O)[C@@H]2CCN2C(=O)[C@H](C)N(C)C(=O)[C@H]([C@@H](C)CC)NC(=O)[C@H](CC(C)C)N(C)C(=O)C[C@@H](C(=O)N(C)C)N(C)C(=O)[C@H](C(CC)CC)N(C)C(=O)C2(CCC2)NC(=O)[C@@H]2CCCN2C(=O)[C@H](CCc2ccc(C(F)(F)F)c(Cl)c2)NC(=O)CN(C)C(=O)[C@@H]1Cc1ccc(C(F)(F)F)cc1 [PP1961] ([NMeL]I[NMeA][Aze][NPrPhe(4-CF3)][Sar][hPhe(3-Cl-4-CF3)]P[Ac4c][NMeNva(3-Et)][NMeD]-NMe2; lactam N-11) | 0.22 | C (A compound having a KD ratio of 0.1 or more and less than 3 is denoted as C) | 8 | C (A compound having a KD ratio of 0.1 or more and less than 3 is denoted as C)
